biological target: T1, human ML1B receptor (Homo sapiens, UniProt P49286); experiment: Binding to human melatonergic receptors (2-[125I]-iodomelatonin, NIH 3T3 cell membranes, human ML1B receptor); conditions: IC50 class; 200 pM 2-[125I]-iodomelatonin, 37° C., 1 hour, membranes of NIH 3T3 cells transfected with human ML1B receptor; read-out: Melatonin Binding
T1 construct: expressed in transfected cells; host or cells: NIH 3T3 cells (stably transfected; obtained from S. M. Reppert)
T1 sequence (P49286 1-362): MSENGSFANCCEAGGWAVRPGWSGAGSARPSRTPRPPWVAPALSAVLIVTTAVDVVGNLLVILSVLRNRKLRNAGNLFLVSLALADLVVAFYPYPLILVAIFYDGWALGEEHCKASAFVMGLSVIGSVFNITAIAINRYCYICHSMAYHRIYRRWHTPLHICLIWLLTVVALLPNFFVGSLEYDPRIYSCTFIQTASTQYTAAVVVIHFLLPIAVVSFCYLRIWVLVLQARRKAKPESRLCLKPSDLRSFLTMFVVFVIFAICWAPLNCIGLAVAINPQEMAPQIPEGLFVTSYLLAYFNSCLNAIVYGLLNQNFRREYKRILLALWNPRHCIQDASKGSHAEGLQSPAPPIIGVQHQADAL
Experimental: Measurement of Binding to Human Melatonergic Receptors The melatonergic binding affinities of various compounds of Formula I were determined by the method of Reppert, S. M., Weaver, D. R., and Ebisawa, R. (Neuron, Volume 13, 1177-1185, 1994). The assays were incubated at 37° C. for 1 hour, and the reaction was terminated by filtration. The filters were washed with wash buffer. […] The reagents, membrane and other techniques used in the melatonergic binding assays are more fully described below: […] Reagents: (a) 50 mM Tris buffer containing 12.5 mM MgCl2, and 2 mM EDTA, pH 7.4 at 37° C. (b) Wash buffer: 20 mM Tris base containing 2 mM MgCl2. pH 7.4 at room temperature. (c) Melatonin (10^-5 M final concentration). (d) 2-[^125 I]-Iodomelatonin, 200 pM final concentration Source: NEN 2. Membrane preparation: NIH 3T3 cells stably transfected with the human ML1B receptor were obtained from S. M. Reppert and maintained. Cells were pelleted when confluent. The supernatant was discarded and the pellets frozen. For preparing membrane homogenates, the pellets are thawed on ice and resuspended in TME buffer, Tris base, MgCl2, EDTA (pH 7.4 at 37° C.), supplemented with aprotinin, leupeptin, and […]. The cells were then homogenized and centrifuged. The resulting pellet was resuspended with a Dounce homogenizer in TME and frozen. At assay, a small aliquot was thawed on ice and resuspended in TME buffer.

Row | IC50 [nM] | SMILES
1 | < 10 | CCc1ccc2c(c1)C(C1CCN(C(=O)C3CC3)CC1)CC2 (stereo not drawn) [1-(Cyclopropylcarbonyl)-4-(6-ethyl-indan-1-yl)piperidine]
2 | < 10 | CCCC(=O)N1CCC(C2CCc3ccc(F)cc32)CC1 (stereo not drawn) [1-Butanoyl-4-(6-fluoro-indan-1-yl)piperidine]
3 | < 10 | COc1ccc2c(c1)C(C1CCN(C(=O)C3CC3)CC1)CC2 (stereo not drawn) [1-Cyclopropylcarbonyl-4-(6-methoxy-indan-1-yl)piperidine]
4 | 10 to 100 | CCNC(=O)N1CCC(C2CCc3ccc(OCCCc4cccc(OC)c4)cc32)CC1 (stereo not drawn) [N-Ethyl-4-[6-[3-(3-methoxyphenyl)propyloxy]-indan-1-yl]piperidine-1-carboxamide]
5 | 10 to 100 | COc1ccc2c(c1)C(C1CCN(C=O)CC1)CC2 (single isomer, unassigned; (+)) [(+)-1-Formyl-4-(6-methoxy-indan-1-yl)piperidine]
6 | 10 to 100 | CCC(C)(C)C(=O)N1CCC(C2CCc3ccc(OC)cc32)CC1 (stereo not drawn) [1-(2,2-Dimethyl-butanoyl)-4-(6-methoxy-indan-1-yl)piperidine]
7 | 10 to 100 | CCNC(=O)N1CCC(C2CCc3ccc(OC(F)(F)F)cc32)CC1 (stereo not drawn) [N-Ethyl-4-[6-(trifluoromethoxy)-indan-1-yl]piperidine-1-carboxamide]
8 | < 10 | COc1ccc2c(c1)C(C1CCN(C=O)CC1)CC2 (stereo not drawn) [1-Formyl-4-(6-methoxy-indan-1-yl)piperidine]
9 | 10 to 100 | O=C(C1CC1)N1CCC(C2CCc3ccc(O)cc32)CC1 (stereo not drawn) [N-(Cyclopropylcarbonyl)-4-(6-hydroxy-indan-1-yl)piperidine]
10 | < 10 | CCNC(=O)N1CCC(C2CCc3ccc(F)cc32)CC1 (stereo not drawn) [N-Ethyl-4-(6-fluoro-indan-1-yl)piperidine-1-carboxamide]
11 | < 10 | COc1ccc2c(c1)C(C1CCN(C(=O)C(C)C)CC1)CC2 (single isomer, unassigned; (-)) [(-)-4-(6-Methoxy-indan-1-yl)-1-(2-methyl-propanoyl)piperidine]
12 | < 10 | COc1ccc2c(c1)C(C1CCN(C(=O)C3CC3)CC1)CC2 (single isomer, unassigned; (+)) [(+)-1-(Cyclopropylcarbonyl)-4-(6-methoxy-indan-1-yl)piperidine]
13 | < 10 | CNC(=O)N1CCC(C2CCc3ccc(OC)cc32)CC1 (single isomer, unassigned; (-)) [(-)-N-Methyl-4-(6-methoxy-indan-1-yl)piperidine-1-carboxamide]
14 | < 10 | COc1ccc2c(c1)C(C1CCN(C(=O)c3ccsc3)CC1)CC2 (stereo not drawn) [4-(6-Methoxy-indan-1-yl)-1-[(3-thienyl)carbonyl]piperidine]
15 | < 10 | O=C(C1CC1)N1CCC(C2CCc3ccc(F)cc32)CC1 (stereo not drawn) [1-(Cyclopropylcarbonyl)-4-(6-fluoro-indan-1-yl)piperidine]
16 | < 10 | CCCCC(=O)N1CCC(C2CCc3ccc(OC)cc32)CC1 (single isomer, unassigned; (-)) [(-)-4-(6-Methoxy-indan-1-yl)-1-pentanoylpiperidine]
17 | < 10 | CCc1ccc2c(c1)C(C1CCN(C(=O)C(C)C)CC1)CC2 (stereo not drawn) [4-(6-Ethyl-indan-1-yl)-1-(2-methylpropanoyl)piperidine]
18 | < 10 | COc1ccc2c(c1)C(C1CCN(C(=O)c3sccc3C)CC1)CC2 (stereo not drawn) [4-(6-Methoxy-indan-1-yl)-1-[(3-methyl-thien-2-yl)carbonyl]piperidine]
19 | < 10 | COc1ccc2c(c1)C(C1CCN(C(=O)c3csnn3)CC1)CC2 (stereo not drawn) [4-(6-Methoxy-indan-1-yl)-1-[(1,2,3-thiadiazol-4-yl)carbonyl]piperidine]
20 | < 10 | COc1ccc2c(c1)C(C1CCN(C(=O)C3CC3)CC1)CC2 (single isomer, unassigned; (-)) [(-)-1-(Cyclopropylcarbonyl)-4-(6-methoxy-indan-1-yl)piperidine]

Row | IC50 [nM] | SMILES
21 | < 10 | CCNC(=O)N1CCC(C2CCc3ccc(OC)cc32)CC1 (stereo not drawn) [N-Ethyl-4-(6-methoxy-indan-1-yl)piperidine-1-carboxamide]
22 | 10 to 100 | COc1ccc2c(c1)C(C1CCN(C(=O)c3csc(Cl)c3OC)CC1)CC2 (stereo not drawn) [1-[(2-Chloro-3-methoxythien-4-yl)carbonyl]-4-(6-methoxy-indan-1-yl)piperidine]
23 | < 10 | COc1ccc2c(c1)C(C1CCN(C(=O)c3occc3C)CC1)CC2 (stereo not drawn) [4-(6-Methoxy-indan-1-yl)-1-[(3-methyl-furan-2-yl)carbonyl]piperidine]
24 | < 10 | O=C(C1CC1)N1CCC(C2CCc3ccccc32)CC1 (stereo not drawn) [1-(Cyclopropylcarbonyl)-4-(indan-1-yl)piperidine]
25 | < 10 | CC(C)C(=O)N1CCC(C2CCc3ccc(F)cc32)CC1 (stereo not drawn) [4-(6-Fluoro-indan-1-yl)-1-(2-methylpropanoyl)piperidine]
26 | < 10 | CCCC(=O)N1CCC(C2CCc3cc(F)c(OC)cc32)CC1 (stereo not drawn) [1-Butanoyl-4-(5-fluoro-6-methoxy-indan-1-yl)piperidine]
27 | < 10 | CCCCCCCOc1ccc2c(c1)C(C1CCN(C(=O)NCC)CC1)CC2 (stereo not drawn) [N-Ethyl-4-[6-(n-heptyloxy)-indan-1-yl]piperidine-1-carboxamide]
28 | 10 to 100 | COc1ccc2c(c1)C(C1CCN(C(=O)C(C)C)CC1)CC2 (single isomer, unassigned; (+)) [(+)-4-(6-Methoxy-indan-1-yl)-1-(2-methylpropanoyl)piperidine]
29 | 10 to 100 | COc1ccc2c(c1)C(C1CCN(C(=O)c3ccc(C)s3)CC1)CC2 (stereo not drawn) [4-(6-methoxy-indan-1-yl)-1-[(5-methyl-thien-2-yl)carbonyl]piperidine]
30 | < 10 | COc1ccc2c(c1)C(C1CCN(C(=O)C(C)C)CC1)CC2 (stereo not drawn) [4-(6-methoxy-indan-1-yl)-1-(2-methylpropanoyl)piperidine]
31 | < 10 | CCC(=O)N1CCC(C2CCc3ccc(OC)cc32)CC1 (single isomer, unassigned; (-)) [(-)-4-(6-Methoxy-indan-1-yl)-1-propanoylpiperidine]
32 | < 10 | COc1ccc2c(c1)C(C1CCN(C(=O)c3ccoc3)CC1)CC2 (stereo not drawn) [1-[(3-Furanyl)carbonyl]4-(6-methoxy-indan-1-yl)-piperidine]
33 | < 10 | CCC(C)C(=O)N1CCC(C2CCc3ccc(OC)cc32)CC1 (stereo not drawn) [4-(6-Methoxy-indan-1-yl)-1-(2-methylbutanoyl)piperidine]
34 | < 10 | COc1ccc2c(c1)C(C1CCN(C(=O)CSC)CC1)CC2 (stereo not drawn) [4-(6-Methoxy-indan-1-yl)-1-(2-methylthioacetyl)piperidine]
35 | < 10 | COc1ccc2c(c1)C(C1CCN(C(=O)C3CC3)CC1)CCC2 (stereo not drawn) [1-(Cyclopropylcarbonyl)-4-(7-methoxy-tetralin-1-yl)piperidine]
36 | < 10 | COc1ccc2c(c1)C(C1CCN(C(=O)c3ccco3)CC1)CC2 (stereo not drawn) [1-[(2-Furanyl)carbonyl]-4-(6-methoxy-indan-1-yl)-piperidine]
37 | < 10 | COc1ccc2c(c1)C(C1CCN(C(=O)N(C)C)CC1)CC2 (single isomer, unassigned; (-)) [(-)-N,N-Dimethyl-4-(6-methoxy-indan-1-yl)piperidine-1-carboxamide]
38 | < 10 | COc1ccc2c(c1)C(C1CCN(C(C)=O)CC1)CC2 (single isomer, unassigned; (-)) [(-)-1-Acetyl-4-(6-methoxy-indan-1-yl)piperidine]
39 | < 10 | COc1ccc2c(c1)C(C1CCN(C(=O)C(F)(F)F)CC1)CC2 (stereo not drawn) [4-(6-methoxy-indan-1-yl)-1-(trifluoroacetyl)piperidine]

— US5703239A, “Indanylpiperidines as melatonergic agents” (Bristol-Myers Squibb Company, priority 1996, dated 1997)
